Measurements reported in patent US20120252054A1, “SYSTEM FOR TRANSFORMATION OF THE CHLOROPLAST GENOME OF SCENEDESMUS SP. AND DUNALIELLA SP” (priority 2009, published 2012).

How the values were obtained:
[1] = test system: S. obliquus transformants containing the codA transgene; experiment: Plating on TAP agar containing 5-fluorocytosine, codA transformants of S. obliquus; format: cell-based, Scenedesmus obliquus; conditions: 1 mg/mL 5FC
Description: In this example, a nucleic acid encoding cytosine deaminase gene (codA) from E. coli was introduced into S. obliquus. Transforming DNA is shown graphically in FIG. 23. In this instance the DNA segment labeled “codA cr” is the codA encoding gene (SEQ ID NO: 27, codA), the segment labeled “psbD” is the promoter and 5′ UTR for the psbD gene from S. dimorphus, the segment labeled “D1 3′” is the 3′ UTR for the psbA gene from […], and the segment labeled “CAT” is the chloramphenicol acetyl transferase gene (CAT) from E. coli, which is regulated by the promoter and 5′ UTR sequence for the tufA gene from S. dimorphus and the 3′ UTR sequence for the rbcL gene from S. dimorphus. The transgene expression cassette and selection marker are targeted to the S. obliquus chloroplast genome via the segments labeled “Homology A” and “Homology B” which are approximately 1000 bp fragments homologous to sequences of DNA adjacent to nucleotide 071,366 (Site 1; nucleotide locations according to the sequence available from NCBI for S. obliquus, NC—008101) on the 5′ and 3′ sides, respectively. All DNA segments were cloned into pUC19. All DNA manipulations carried out in the construction of this transforming DNA were essentially as described by Sambrook et al., Molecular Cloning: A Laboratory Manual (Cold Spring Harbor Laboratory Press 1989) and Cohen et al., Meth. Enzymol. 297, 192-208, 1998. […]

[2] = test system: S. dimorphus transformants containing the codA transgene; experiment: Plating on TAP agar containing 5-fluorocytosine, codA transformants; format: cell-based, Scenedesmus dimorphus; conditions: 1 mg/mL 5FC
Description: In this example, a nucleic acid encoding cytosine deaminase gene (codA) from E. coli was introduced into S. dimorphus. Transforming DNA is shown graphically in FIG. 23. In this instance the DNA segment labeled “codA cr” is the codA encoding gene (SEQ ID NO: 31, codA), the segment labeled “psbD” is the promoter and 5′ UTR for the psbD gene from S. dimorphus, the segment labeled “D1 3′” is the 3′ UTR for the psbA gene from S. dimorphus, and the segment labeled “CAT” is the chloramphenicol acetyl transferase gene (CAT) from E. coli, which is regulated by the promoter and 5′ UTR sequence for the tufA gene from S. dimorphus and the 3′ UTR sequence for the rbcL gene from S. dimorphus. The transgene expression cassette and selection marker are targeted to the S. dimorphus chloroplast genome via the segments labeled “Homology A” and “Homology B” which are approximately 1000 bp fragments homologous to sequences of DNA adjacent to nucleotide 071,366 (Site 1; nucleotide locations according to the sequence available from NCBI for S. obliquus, NC—008101) on the 5′ and 3′ sides, respectively. All DNA segments were cloned into pUC19. All DNA manipulations carried out in the construction of this transforming DNA were essentially as described by Sambrook et al., Molecular Cloning: A Laboratory Manual (Cold Spring Harbor Laboratory Press 1989) and Cohen et al., Meth. Enzymol. 297, 192-208, 1998. […]

Wildtype S. dimorphus = experiment: Plating on TAP agar containing 5-fluorocytosine, wild type; format: cell-based, Scenedesmus dimorphus; conditions: 1 mg/mL 5FC
Method: To determine if functional codA is produced by transformed algae cells, cells were grown in TAP media to log phase, pelleted and resuspended to 10^8 cells/mL and plated onto TAP agar medium containing 1 mg/mL 5-fluorocytosine (5FC).
To determine if functional codA is produced by transformed algae cells, cells were plated onto TAP agar medium containing 1 mg/mL 5-fluorocytosine (5FC).

wild type S. dimorphus = experiment: Growth in HSM with various concentrations of DCMU or atrazine, wild type; format: cell-based, Scenedesmus dimorphus; conditions: constant light 50-100 uE with CO2 enrichment, 4 days
[3] = test system: S. dimorphus DCMU transformants (CAT cassette); experiment: Patching of DCMU-selected CAT-cassette transformants onto TAP agar with chloramphenicol; format: cell-based, Scenedesmus dimorphus; conditions: TAP agar medium containing 25 μg/mL CAM
Description: In order to determine if DCMU selection could result in incorporation of an expression cassette downstream of the psbA gene, A vector was constructed containing an expression cassette consisting of an endogenous promoter, a chloramphenicol acetyltransferase (CAT) gene, and an endogenous terminator cloned ˜500 bp downstream of the S264A/XbaI mutated psbA gene fragment from S. dimorphus and including the rpl20 gene. Transforming DNA is shown graphically in FIG. 4. In this instance the DNA segment labeled “CAT” is the chloramphenicol acetyl transferase gene from E. coli, the segment labeled “tufA” is the promoter and 5′ UTR sequence for the tufA gene from S. dimorphus, and the segment labeled “rbcL” is the 3′ UTR for the rbcL gene from S. dimorphus. The selection marker cassette is targeted to the S. dimorphus chloroplast genome via the segments labeled “Homology A2” and “Homology B2” which are 1000 bp fragments homologous to sequences of DNA adjacent to nucleotide 065,353 and include an S264A/XbaI mutated partial psbA coding sequence, its 3′UTR, and the rpl20 coding sequence. This vector targets integration of the selection marker cassette approximately 400 bp 3′ of the stop codon of the psbA gene.
Transforming DNA was introduced into S. dimorphus via particle bombardment (as described in EXAMPLE 1) with DNA carried on 550 nm gold particles, @500 psi and a shooting distance of 4 cm. […]

Nc1nc(=O)[nH]cc1F [5FC, 5-fluorocytosine]
survival on TAP agar containing 5FC [1]: did not
survival on TAP agar containing 5FC [2]: do not
survival on TAP agar containing 5FC (Wildtype S. dimorphus): survived

CN(C)C(=O)Nc1ccc(Cl)c(Cl)c1 [DCMU, 3-(3,4-Dichlorophenyl)-1,1-dimethylurea]
concentration in which cells fail to grow (wild type S. dimorphus): 0.5 µM

CCNc1nc(Cl)nc(NC(C)C)n1 [Atrazine]
concentration in which cells fail to grow (wild type S. dimorphus): 0.5 µM

O=C(N[C@H](CO)[C@H](O)c1ccc([N+](=O)[O-])cc1)C(Cl)Cl [CAM, chloramphenicol]
resistance of transformants to chloramphenicol [3]: resistant
